Measured values as given in ChEMBL document CHEMBL4130359, “Indazole-based ligands for estrogen-related receptor α as potential anti-diabetic agents” (Eur J Med Chem, 2017).
Calls of active or inactive are those of the source. The calls are words filed in the database; no cut-off is given here.

Columns and labels:
[1] = molecular target: Retinoic acid receptor beta (Homo sapiens, UniProt P10826); test: Agonist activity at recombinant GST-tagged human RARbeta LBD assessed as fluorescein-labeled coactivator peptide recruitment preincubated with enzyme followed by coactivator addition by LanthaScreen TR-FRET assay
Sequence of Retinoic acid receptor beta (P10826 whole entry, the tested form may be a part): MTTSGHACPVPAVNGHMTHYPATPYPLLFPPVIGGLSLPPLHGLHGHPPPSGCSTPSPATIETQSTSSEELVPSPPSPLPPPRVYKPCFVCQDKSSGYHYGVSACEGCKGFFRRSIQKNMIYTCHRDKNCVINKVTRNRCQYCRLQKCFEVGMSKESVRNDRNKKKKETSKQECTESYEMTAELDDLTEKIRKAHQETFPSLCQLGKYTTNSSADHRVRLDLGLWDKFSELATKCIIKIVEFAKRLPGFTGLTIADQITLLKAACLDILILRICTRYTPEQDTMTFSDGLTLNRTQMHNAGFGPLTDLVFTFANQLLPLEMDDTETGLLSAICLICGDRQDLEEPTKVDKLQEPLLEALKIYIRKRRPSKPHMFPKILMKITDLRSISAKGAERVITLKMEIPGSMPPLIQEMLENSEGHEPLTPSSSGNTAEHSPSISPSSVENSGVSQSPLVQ

[2] = molecular target: Oxysterols receptor LXR-alpha (Homo sapiens, UniProt Q13133); test: Antagonist activity at recombinant GST-tagged human LXRalpha LBD assessed as inhibition of TO901317-induced fluorescein-labeled coactivator peptide recruitment preincubated with enzyme followed by coactivator addition by LanthaScreen TR-FRET assay
Sequence of Oxysterols receptor LXR-alpha (Q13133 whole entry, the tested form may be a part): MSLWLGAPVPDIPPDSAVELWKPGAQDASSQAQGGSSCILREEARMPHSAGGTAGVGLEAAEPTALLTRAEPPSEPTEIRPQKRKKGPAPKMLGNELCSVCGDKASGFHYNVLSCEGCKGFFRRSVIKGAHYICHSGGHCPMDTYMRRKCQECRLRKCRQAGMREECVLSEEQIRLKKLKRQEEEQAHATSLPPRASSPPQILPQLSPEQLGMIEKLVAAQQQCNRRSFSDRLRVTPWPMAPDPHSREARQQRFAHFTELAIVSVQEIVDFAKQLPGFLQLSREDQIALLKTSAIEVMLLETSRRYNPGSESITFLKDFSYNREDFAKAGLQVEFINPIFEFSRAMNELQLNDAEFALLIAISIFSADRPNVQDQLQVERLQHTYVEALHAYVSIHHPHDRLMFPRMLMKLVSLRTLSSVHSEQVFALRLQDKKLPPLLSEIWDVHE

[3] = molecular target: Oxysterols receptor LXR-beta (Homo sapiens, UniProt P55055); test: Antagonist activity at recombinant GST-tagged human LXRbeta LBD assessed as inhibition of TO901317-induced fluorescein-labeled coactivator peptide recruitment preincubated with enzyme followed by coactivator addition by LanthaScreen TR-FRET assay
Sequence of Oxysterols receptor LXR-beta (P55055 whole entry, the tested form may be a part): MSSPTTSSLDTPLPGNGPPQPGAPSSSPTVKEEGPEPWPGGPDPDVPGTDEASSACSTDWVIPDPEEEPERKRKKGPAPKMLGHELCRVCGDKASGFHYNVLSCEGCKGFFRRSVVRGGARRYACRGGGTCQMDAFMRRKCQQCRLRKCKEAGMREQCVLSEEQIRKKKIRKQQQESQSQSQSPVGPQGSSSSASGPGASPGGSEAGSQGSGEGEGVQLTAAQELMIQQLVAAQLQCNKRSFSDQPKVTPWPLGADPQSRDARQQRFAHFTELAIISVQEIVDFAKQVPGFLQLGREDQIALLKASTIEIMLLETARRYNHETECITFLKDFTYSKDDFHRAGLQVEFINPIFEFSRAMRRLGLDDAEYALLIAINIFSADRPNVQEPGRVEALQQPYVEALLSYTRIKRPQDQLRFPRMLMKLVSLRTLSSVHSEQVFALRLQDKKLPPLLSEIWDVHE

[4] = Half life in CD-1 mouse at 5 mg/kg, iv by LC-MS analysis; type: ADME, organism-based; conditions: in vivo
[5] = Terminal half life in […] at 15 mg/kg administered via oral gavage by LC-MS analysis; type: ADME, organism-based; conditions: in vivo, read-out: beta t1/2 (converted)
[6] = Oral bioavailability in CD-1 mouse at 20 mg/kg administered via gavage by LC-MS analysis; type: ADME, organism-based; conditions: in vivo
[7] = Cmax in Zucker rat sub-chronic fa/fa prediabetic model at 3 mg/kg, po qd for 26 days measured on day 26 post last dose; type: ADME, organism-based; set-up: dose 3 mg/kg, route oral; conditions: in vivo
[8] = Cmax in Zucker rat sub-chronic fa/fa prediabetic model at 50 mg/kg, po qd for 26 days measured on day 26 post last dose; type: ADME, organism-based; set-up: dose 50 mg/kg, route oral; conditions: in vivo
[9] = AUC (0 to 24 hrs) in Zucker rat sub-chronic fa/fa prediabetic model at 3 mg/kg, po qd measured on day 1 post dose; type: ADME, organism-based; set-up: time < 24 hr, dose 3 mg/kg, route oral; conditions: in vivo
Rattus norvegicus [10] = test: Toxicity in Zucker rat sub-chronic fa/fa prediabetic model assessed as food intake at 1 mg/kg, po qd for 29 days measured on day 1 to 29 during compound dosing (reference value: 969 +/- 18 g); type: organism-based; conditions: in vivo, 696 h
Rattus norvegicus [11] = test: Toxicity in Zucker rat sub-chronic fa/fa prediabetic model assessed as food intake at 10 mg/kg, po qd for 29 days measured on day 1 to 29 during compound dosing (reference value: 969 +/- 18 g); type: organism-based; conditions: in vivo, 696 h
Rattus norvegicus [12] = test: Toxicity in Zucker rat sub-chronic fa/fa prediabetic model assessed as triglyceride level per gram liver at 50 mg/kg, po qd for 31 days measured on day 32 (reference value: 163.4 +/- 8.3 mg); type: organism-based; conditions: in vivo, 744 h
Rattus norvegicus [13] = test: Toxicity in Zucker rat sub-chronic fa/fa prediabetic model assessed as serum ALT level at 50 mg/kg, po qd for 31 days measured on day 32 (reference value: 151 +/- 23 U/L); type: organism-based; conditions: in vivo, 744 h
Rattus norvegicus [14] = test: Toxicity in Zucker rat sub-chronic fa/fa prediabetic model assessed as serum creatinine level at 3 mg/kg, po qd for 31 days measured on day 32 (reference value: 0.71 +/- 0.07 mg/dl); type: organism-based; conditions: in vivo, 744 h
[15] = Drug uptake in plasma of Zucker rat sub-chronic fa/fa prediabetic model at 12.5 mg/kg, po qd for 11 days; type: ADME, organism-based
Rattus norvegicus [16] = type: functional, Zucker
[17] = Cmax in […] chronic ob/ob model at 3 mg/kg, po qd measured on day 1 post dose; type: ADME, organism-based; set-up: dose 3 mg/kg, route oral; conditions: in vivo
Rattus norvegicus [18] = test: Toxicity in […] chronic ob/ob model assessed as body weight at 3 mg/kg, po qd for 28 days measured on day 28 post last dose (reference value: 47.3 +/- 1.06 g); type: organism-based; conditions: in vivo, 672 h
Rattus norvegicus [19] = test: Toxicity in […] chronic ob/ob model assessed as epididymal white adipose tissue weight at 10 mg/kg, po qd for 31 days measured on day 32 (reference value: 3.92 +/- 0.14 g); type: organism-based; conditions: in vivo, 744 h
Rattus norvegicus [20] = test: Toxicity in […] model assessed as serum cholesterol level at 3 mg/kg, po qd for 31 days measured on day 32 (reference value: 195 +/- 5.5 mg/dl); type: organism-based; conditions: in vivo, 744 h
Rattus norvegicus [21] = test: Toxicity in […] model assessed as serum ALT level at 3 mg/kg, po qd for 31 days measured on day 32 (reference value: 127 +/- 9 U/L); type: organism-based; conditions: in vivo, 744 h
Rattus norvegicus [22] = test: Increase in IDH3A mRNA expression in epididymal white adipose tissue of Zucker rat sub-chronic fa/fa prediabetic model at 10 mg/kg, po qd for 15 days by RT-PCR method; type: functional, organism-based
Rattus norvegicus [23] = test: Increase in ANGPTL4 mRNA expression in epididymal white adipose tissue of Zucker rat sub-chronic fa/fa prediabetic model at 10 mg/kg, po qd for 15 days by RT-PCR method; type: functional, organism-based
Rattus norvegicus [24] = test: Effect on SDHD gene expression in epididymal white adipose tissue of Zucker rat sub-chronic fa/fa prediabetic model at 10 mg/kg, po qd for 15 days by microarray analysis relative to control; type: functional
Rattus norvegicus [25] = test: Effect on NDUFA5 gene expression in epididymal white adipose tissue of Zucker rat sub-chronic fa/fa prediabetic model at 10 mg/kg, po qd for 15 days by microarray analysis relative to control; type: functional
Rattus norvegicus [26] = test: Effect on NDUFB5 gene expression in epididymal white adipose tissue of Zucker rat sub-chronic fa/fa prediabetic model at 10 mg/kg, po qd for 15 days by microarray analysis relative to control; type: functional
Rattus norvegicus [27] = test: Effect on ACADM gene expression in epididymal white adipose tissue of Zucker rat sub-chronic fa/fa prediabetic model at 10 mg/kg, po qd for 15 days by microarray analysis relative to control; type: functional
Rattus norvegicus [28] = test: Effect on PRKCD gene expression in epididymal white adipose tissue of Zucker rat sub-chronic fa/fa prediabetic model at 10 mg/kg, po qd for 15 days by microarray analysis relative to control; type: functional
Rattus norvegicus [29] = test: Effect on CPT2 gene expression in epididymal white adipose tissue of Zucker rat sub-chronic fa/fa prediabetic model at 10 mg/kg, po qd for 15 days by microarray analysis relative to control; type: functional
Rattus norvegicus [30] = test: Effect on BAD gene expression in epididymal white adipose tissue of Zucker rat sub-chronic fa/fa prediabetic model at 10 mg/kg, po qd for 15 days by microarray analysis relative to control; type: functional
Rattus norvegicus [31] = test: Effect on IGFBP6 gene expression in epididymal white adipose tissue of Zucker rat sub-chronic fa/fa prediabetic model at 10 mg/kg, po qd for 15 days by microarray analysis relative to control; type: functional
Rattus norvegicus [32] = test: Effect on ACOT4 gene expression in epididymal white adipose tissue of Zucker rat sub-chronic fa/fa prediabetic model at 10 mg/kg, po qd for 15 days by microarray analysis relative to control; type: functional
Rattus norvegicus [33] = test: Effect on MSMO1 gene expression in epididymal white adipose tissue of Zucker rat sub-chronic fa/fa prediabetic model at 10 mg/kg, po qd for 15 days by microarray analysis relative to control; type: functional
Rattus norvegicus [34] = test: Effect on PGAM2 gene expression in epididymal white adipose tissue of Zucker rat sub-chronic fa/fa prediabetic model at 10 mg/kg, po qd for 15 days by microarray analysis relative to control; type: functional

CN1CC[C@@H](N2C(=O)S/C(=C\c3ccc4c(cnn4Cc4ccc(Cl)cc4C(F)(F)F)c3)C2=O)[C@H](F)C1
EC50 [1]: > 10 µM
IC50 [2]: > 10 µM
IC50 [3]: > 10 µM
half-life [4]: 11.8 h
half-life [5]: 6.7 h
bioavailability [6]: 52%
Cmax [7]: 1220 ng/mL
Cmax [8]: 7660 ng/mL
AUC(0-t) at 24 h [9]: 5980 ng·h/mL
Activity (Rattus norvegicus [10]): 975 g
Activity (Rattus norvegicus [11]): 1060 g
Activity (Rattus norvegicus [12]): 69.4 mg
Activity (Rattus norvegicus [13]): 104 U/L
Activity (Rattus norvegicus [14]): 0.56 mg/dL
concentration at 264 h [15]: 814 ng/mL
Activity (Rattus norvegicus [16]): 17.3%
Cmax [17]: 207 ng/mL
Activity (Rattus norvegicus [18]): 43.5 g
Activity (Rattus norvegicus [19]): 3.29 g
Activity (Rattus norvegicus [20]): 171 mg/dL
Activity (Rattus norvegicus [21]): 172 U/L
Activity (Rattus norvegicus [22]): Active
Activity (Rattus norvegicus [23]): Active
fold change (FC) (Rattus norvegicus [24]): 1.275
fold change (FC) (Rattus norvegicus [25]): 1.568
fold change (FC) (Rattus norvegicus [26]): 1.206
fold change (FC) (Rattus norvegicus [27]): 1.475
fold change (FC) (Rattus norvegicus [28]): -1.615
fold change (FC) (Rattus norvegicus [29]): 2.352
fold change (FC) (Rattus norvegicus [30]): -1.216
fold change (FC) (Rattus norvegicus [31]): -1.269
fold change (FC) (Rattus norvegicus [32]): 2.122
fold change (FC) (Rattus norvegicus [33]): -1.271
fold change (FC) (Rattus norvegicus [34]): 1.396
